Consider one compound from patent US11827624B2, “Covalent immune recruiter compounds for immune cell recognition and associated uses” (McMaster University, priority 2020, dated 2023).

For series [1], the system named is PSMA+LNCaP cells. Nature of the series: Flow cytometry ADCP assay with mmAb on LNCaP cells. It counts as cell-based, human. The text has this: ADCP flow cytometry experiments were run on a BD LSRII Flow Cytometer. The human IgG isotype control used was purchased from Jackson ImmunoResearch (009-000-003). The human IgG1 monoclonal anti-DNP antibody (mAb) was purchased from acrobiosystems (DNP-M2). PSMA expression was confirmed with an anti-PSMA antibody Alexa 647 conjugate (Novus Biologicals, Catalog #FAB4234R). For PSMA competition controls, PMPA was purchased from Sigma (SML1612). Hek-293T (PSMA+/−) cell lines were generously given by Dr. Cyril Barinka (Institute of Biotechnology CAS, Czech Republic). U937 cells were generously given by Dr. John Valliant (McMaster University, Canada). LNCaP cells were generously given by Dr. Karen Mossman (McMaster University, Canada). IFN-γ was purchased from Fischer Scientific (PHC4031). Ultra low IgG FBS was purchased from Fischer Scientific (A3381901). RPMI-1640 was purchased as a powder from Fischer Scientific (31800089) and resuspended. DMEM was purchased as a powder from Fischer Scientific (12800082) and resuspended. […]
For preparation of effector monocytes, 24 hours prior to inducing phagocytosis U937 monocytes were seeded at 500,000 cells/mL and activated with IFN-γ ([…]). After incubation, these cells were then counted and washed twice with serum free assay media (neat RPMI). […] These cells were then counted and washed twice with serum free assay media (neat RPMI). […]

A short description of series [2]: Aqueous CIR stability test (LC-MS hydrolytic stability in PBS). It counts as physicochemical. The note with it: PBS with 1% DMSO; ≈10 μM in 1% DMSO/PBS, room temperature; read-out: t1/2 (hydrolytic stability, intact CIR) (converted). The protocol: Stability studies were conducted on a Sciex 4000 QTRAP, ESI-LCMS Triple Quadrupole Mass Spectrometer connected to an Agilent 1200 HPLC. All molecules were diluted 100× in PBS from a stable frozen DMSO stock solution reaching a final concentration of ≈10 μM in 1% DMSO/PBS and incubated for different amounts of time at room temperature, prior to LC-MS injection using a gradient of 95:5 to 5:95 (0.1% Formic Acid (aq)) water: ACN over 15 minutes. The integrations of the Absorbance values at 355-365 nm, were determined corresponding to the DNP moiety. The absorbance values corresponding to intact CIR were divided by the sum of intact and hydrolyzed CIR (the imidazole-DNP fragment) to determine fraction CIR intact changing with time. The fraction of intact CIR versus time was plotted on GraphPad Prism 8 using a “Dissociation—One Phase Decay” to extract the half life.
LC-MS analysis of the hydrolytic stability of CIRs 1, 3, and 4 in PBS was performed. The curve fit was done using a monoexponential decay which represents intact CIR plotted as a function of peak integration (corresponding to DNP absorbance) overtime.

`O=C(O)CC[C@H](NC(=O)N[C@@H](CCCCNC(=O)NCCOCCOCCOCCOCCOCCOCCOCCOC(=O)n1cnc(CCNC(=O)CNc2ccc([N+](=O)[O-])cc2[N+](=O)[O-])c1)C(=O)O)C(=O)O` [CIR 3]: the “ADCP on LNCaP target cells” value in series [1] was “significant functional advantage compared to non-covalent recruitment across all antibody concentrations tested”. Also, the half-life in series [2] was ~12 h.
